Source: US8628771B2, “CA IX-specific inhibitors” (Institute of Virology Slovak Academy of Sciences, priority 2002, dated 2014)
Counter-ions that a name gives are not always drawn. Like-named read-outs stand apart in the source and are kept apart here.

Columns and labels:
hCA I = target: T1, hCA I (Homo sapiens, UniProt P00915); assay: CA esterase activity assay, isozyme hCA I; type: biochemical; settings: Table 3; human (cloned) isozymes, esterase assay method; read-out: KI hCA I
T1 construct: made in house; host or cells: Escherichia coli BL21 (DE3)
T1 sequence (P00915 whole entry): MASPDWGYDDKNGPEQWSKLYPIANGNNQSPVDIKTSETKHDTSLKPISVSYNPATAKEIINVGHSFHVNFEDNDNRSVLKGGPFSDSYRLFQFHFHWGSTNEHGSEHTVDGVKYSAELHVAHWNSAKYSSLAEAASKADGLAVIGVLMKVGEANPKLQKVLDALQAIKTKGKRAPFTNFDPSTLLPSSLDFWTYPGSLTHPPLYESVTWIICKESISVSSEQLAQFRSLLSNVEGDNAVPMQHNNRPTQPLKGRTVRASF
Protocol: (§1) Human CA I and CA II cDNAs were expressed in Escherichia coli strain BL21 (DE3) from the plasmids pACA/hCA I and pACA/hCA II described by Lindskog's group [54].
(§2) Non-enzymatic hydrolysis rates were always subtracted from the observed rates. […] Inhibitor and enzyme solutions were preincubated together for 10 min at room temperature prior to assay, in order to allow for the formation of the E-I complex. The inhibition constant KI was determined as described in references [44, 76].

hCA II = target: T2, hCA II (Homo sapiens, UniProt P00918); assay: CA esterase activity assay, isozyme hCA II; type: biochemical
T2 construct: made in house; host or cells: Escherichia coli BL21 (DE3)
Protocol: as §1, §2

bCA IV = target: T3, bCA IV (Bos taurus, UniProt Q95323); assay: CA esterase activity assay, isozyme bCA IV; type: biochemical, bovine; settings: Table 3; from bovine lung microsomes, esterase assay method; read-out: KI bCA IV
T3 construct: CA IV was isolated from bovine lung microsomes as described by Maren et al; from tissue; host or cells: bovine lung microsomes
T3 sequence (Q95323 19-284): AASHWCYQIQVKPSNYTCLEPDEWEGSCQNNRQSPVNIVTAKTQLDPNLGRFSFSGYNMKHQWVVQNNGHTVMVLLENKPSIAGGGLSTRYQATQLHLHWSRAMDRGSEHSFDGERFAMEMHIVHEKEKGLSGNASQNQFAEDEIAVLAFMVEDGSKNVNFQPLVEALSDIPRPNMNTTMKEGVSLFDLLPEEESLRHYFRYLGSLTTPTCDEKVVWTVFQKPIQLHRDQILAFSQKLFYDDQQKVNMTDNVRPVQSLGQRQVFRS

human red cells = settings: for [sulfonamide] in red blood cells, EI / [sulfonamide] in red blood cells, ES / [sulfonamide] in red blood cells, HPLC: human, 2 mM, pH 7.4
hCA IX = hCA IX (Homo sapiens, UniProt Q16790); assay: CA CO2 hydrase activity assay, tumor-associated isozyme hCA IX
Protocol: An SX.18MV-R Applied Photophysics stopped-flow instrument has been used for assaying the CA CO2 hydration activity assays [44]. […] Inhibitor and enzyme solutions were preincubated together for 10 min at room temperature prior to assay, in order to allow for the formation of the E-I complex.

**Q.** With `NS(=O)(=O)c1nnc(NS(=O)(=O)c2ccc(-[n+]3c(-c4ccccc4)cccc3-c3ccccc3)cc2)s1` (as salt: perchlorate) [Compound 88, 1-N-[5-Sulfamoyl-1,3,4-thiadiazol-2-yl-(aminosulfonyl-4-phenyl)]-2,6-diphenylpyridinium perchlorate] as the compound, how does the melting point read?
**A.** The melting point was 218 to 220 °C.

**Q.** For `Cc1cc(C)[n+](-c2ccc(S(=O)(=O)Nc3nnc(S(N)(=O)=O)s3)cc2)c(C)c1` (as salt: perchlorate) [Compound 71, 1-N-[5-Sulfamoyl-1,3,4-thiadiazol-2-yl-(aminosulfonyl-4-phenyl)]-2,4,6-trimethyl-pyridinium perchlorate], which melting point is on record?
**A.** The melting point was over 300 °C.

**Q.** For `CCc1cc(-c2ccccc2)cc(-c2ccccc2)[n+]1-c1ccc(S(=O)(=O)Nc2nnc(S(N)(=O)=O)s2)cc1` (as salt: perchlorate) [Compound 81, 1-N-[5-Sulfamoyl-1,3,4-thiadiazol-2-yl-(aminosulfonyl-4-phenyl)]-2-ethyl-4,6-diphenylpyridinium perchlorate], which melting point is on record?
**A.** Its melting point is 254 to 255 °C.

**Q.** With `CCCc1cc(-c2ccccc2)cc(-c2ccccc2)[n+]1-c1ccc(S(=O)(=O)Nc2nnc(S(N)(=O)=O)s2)cc1` (as salt: perchlorate) [Compound 82, 1-N-[5-Sulfamoyl-1,3,4-thiadiazol-2-yl-(aminosulfonyl-4-phenyl)]-2-n-propyl-4,6-diphenylpyridinium perchlorate] as the compound, how does the melting point read?
**A.** Its melting point is 214 to 215 °C.

**Q.** With `Cc1cc(-c2ccccc2)cc(C)[n+]1-c1ccc(S(=O)(=O)Nc2nnc(S(N)(=O)=O)s2)cc1` (as salt: perchlorate) [Compound 75, 1-N-[5-Sulfamoyl-1,3,4-thiadiazol-2-yl-(aminosulfonyl-4-phenyl)]-2,6-dimethyl-4-phenylpyridinium perchlorate] as the compound, how does the melting point read?
**A.** Its melting point is over 300 °C.

**Q.** With `CCc1cc(-c2ccccc2)cc(CC)[n+]1-c1ccc(S(=O)(=O)Nc2nnc(S(N)(=O)=O)s2)cc1` (as salt: perchlorate) [Compound 76, 1-N-[5-Sulfamoyl-1,3,4-thiadiazol-2-yl-(aminosulfonyl-4-phenyl)]-2,6-diethyl-4-phenylpyridinium perchlorate] as the compound, how does the melting point read?
**A.** Its melting point is 267 to 268 °C.

**Q.** Which melting point does the source give for `CC(C)(C)c1cc(-c2ccccc2)cc(-c2ccccc2)[n+]1-c1ccc(S(=O)(=O)Nc2nnc(S(N)(=O)=O)s2)cc1` (as salt: perchlorate) [Compound 85, 1-N-[5-Sulfamoyl-1,3,4-thiadiazol-2-yl-(aminosulfonyl-4-phenyl)]-2-tert-butyl-4,6-diphenylpyridinium perchlorate] here?
**A.** The melting point was 203 to 205 °C.

**Q.** With `CC(C)c1cc(-c2ccccc2)cc(-c2ccccc2)[n+]1-c1ccc(S(=O)(=O)Nc2nnc(S(N)(=O)=O)s2)cc1` (as salt: perchlorate) [Compound 83, 1-N-[5-Sulfamoyl-1,3,4-thiadiazol-2-yl-(aminosulfonyl-4-phenyl)]-2-iso-propyl-4,6-diphenylpyridinium perchlorate] as the compound, how does the melting point read?
**A.** Its melting point is 186 to 188 °C.

**Q.** For `CC(C)c1cc(-c2ccccc2)cc(C(C)C)[n+]1-c1ccc(S(=O)(=O)Nc2nnc(S(N)(=O)=O)s2)cc1` (as salt: perchlorate) [Compound 79, 1-N-[5-Sulfamoyl-1,3,4-thiadiazol-2-yl-(aminosulfonyl-4-phenyl)]-2,6-di-isopropyl-4-phenylpyridinium perchlorate], which melting point is on record?
**A.** The melting point was 278 to 279 °C.

**Q.** Which Ki (hCA I) does the source give for `CCc1cc(-c2ccccc2)cc(CC)[n+]1-c1ccc(S(=O)(=O)Nc2nnc(S(N)(=O)=O)s2)cc1` [Compound 76, 1-N-[5-Sulfamoyl-1,3,4-thiadiazol-2-yl-(aminosulfonyl-4-phenyl)]-2,6-diethyl-4-phenylpyridinium perchlorate] here?
**A.** The Ki was 4 nM.

**Q.** And the Ki (hCA II; Table 3, human (cloned) isozymes, esterase assay method, read-out: KI hCA II)?
**A.** Its Ki is 0.21 nM.

**Q.** And the Ki (hCA II; Tables 1 and 3, read-out: KI against CA II)?
**A.** The Ki was 0.2 to 1.61 nM.

**Q.** What about the Ki (bCA IV) of the same compound?
**A.** Its Ki is 2.3 nM.

**Q.** What about the “amount detected within the blood red cells (membrane penetration)” value (human red cells) of the same compound?
**A.** Its value is “detected only in very small amounts”.

**Q.** And the “[sulfonamide] in red blood cells, EI” value (human red cells; 30 min)?
**A.** The value was 1.0 µM.

**Q.** What about the “[sulfonamide] in red blood cells, ES” value (human red cells; 30 min) of the same compound?
**A.** The value was 1.1 µM.

**Q.** What about the “[sulfonamide] in red blood cells, HPLC” value (human red cells; 30 min) of the same compound?
**A.** Its value is 1.0 µM.

**Q.** What about the “[sulfonamide] in red blood cells, EI” value (human red cells; 60 min) of the same compound?
**A.** The value was 1.1 µM.

**Q.** And the “[sulfonamide] in red blood cells, ES” value (human red cells; 60 min)?
**A.** The value was 1.2 µM.

**Q.** What about the “[sulfonamide] in red blood cells, HPLC” value (human red cells; 60 min) of the same compound?
**A.** Its value is 1.1 µM.

**Q.** And the Ki (hCA IX)?
**A.** The Ki was 3 to 9 nM.

**Q.** What about the Ki (hCA IX; read-out: KI hCA IX, Table 3, catalytic domain of the human, cloned isozyme, CO2 hydrase assay method) of the same compound?
**A.** Its Ki is 9 nM.
